According to patent US5885994A, “Tetrahydroquinoxaline dopamine D4 receptor antagonists” (Warner-Lambert Company, priority 1998, dated 1999):
pIC50: −log10 of the molar value.

Experiments:
human D2 receptor = human D2 receptor (Homo sapiens, UniProt P14416); test: Inhibition of [3H]spiperone binding to human dopamine D2 receptors; conditions: human D2 (Long form), CHO K1 membranes
Text: A cell line expressing human dopamine D2 (Long form) receptors was purchased from Oregon Health Sciences University, Portland, Oreg. The D2 receptor cDNA was subcloned into an expression vector, pRc/CMV. The plasmids were transfected by electroporation into CHO K1 cells. A single stable transfectant, resistant to the antibiotic 418, was isolated and selected for use in the binding studies. For D4 binding, CHO K1 cells stably transfected to express the human recombinant dopamine D4.2 receptor subtype, as described by Shih, et al., "The expression and functional characterization of human dopamine D4.2 receptor in CHO K1 cells," Soc. Neurosci., 1995;21(Part 1):621.
CHO K1 cells expressing either human D2 and D4.2 receptors were grown in 162 cm^2 culture flasks in F12 medium (Gibco Laboratories, Grand Island, N.Y.) supplemented with 10% fetal bovine serum (FBS, Hyclone, Logan, Utah) in an atmosphere of 5% CO2 /95% air at 37° C. Cells were grown until confluent, after which growth medium was removed and replaced with 0.02% ethylene diamine tetracetate (EDTA) in a phosphate-buffered saline solution (Sigma Chemical Co., St. Louis, Mo.) and scraped from the flasks. The cells were centrifuged at about 1000×g for 10 minutes at […] and then resuspended in TEM buffer (25 mM Tris-HCl, pH 7.4, 5 mM EDTA, and 6 mM MgCl2) for D2 or the D4.2 buffer (50 mM Tris-HCl, pH 7.4, 5 mM EDTA, 1.5 mM CaCl2, 5 mM KCl, and 120 mM NaCl) and homogenized. The membranes were pelleted by centrifugation at 20,000×g at […] for 20 minutes. Then the pellets were resuspended in appropriate buffer at 1 mL/flask and stored at -70° C. until used in the receptor binding assay.
Receptor Binding Assays: D2,D4.2 Dopamine Receptors
After 60 minutes incubation at 25° C., the incubations were terminated by rapid filtration through Whatmann F/B lass fibre filters (soaked for 1 hour in 0.5% polyethylenimine) on a cell harvester, with three washes of 1 mL ice-cold buffer. Individual filter disks containing the bound ligand were placed in counting vials with 4 mL of scintillation fluid (Ready Gel, Beckman Instrument Inc., Fullerton, Calif.) and then counted in a Beckman LS-6800 liquid scintillation counter at an efficiency of 45%. Nonspecific binding was defined in presence of 1 mM of haloperidol.
Saturation and competition binding data were analyzed using an iterative nonlinear least-square curve-fitting Ligand program. In competition experiments, apparent Ki values were calculated from IC50 values by method of Cheng and Prusoff, "Relationship between the inhibition constant (Ki) and the concentration of inhibitor which causes 50% inhibition (IC50) of an enzymatic reaction," Biochem. Pharmacol., 1973;22:3099-3108. Experimental compounds were made up as stock solutions in dimethyl sulfoxide (DMSO). […] Each observation was carried out in triplicate. To allow these calculations, Ki values were measured for the interaction of various ligands with the receptor. […]

locomotor activity = test: Behavioral activity (locomotor activity) in the Omnitech Digiscan Animal Activity Monitors; type: in vivo, mice and rats
Protocol: PROTOCOL FOR THE BEHAVIORAL ACTIVITY ASSESSMENT OF MICE AND RATS IN THE OMNITECH DIGISCAN ANIMAL ACTIVITY MONITORS
The purpose of this test is to evaluate compounds for antipsychotic-like central nervous system (CNS) effects and a variety of other behavioral effects generally associated with CNS activity. […] Generally, however, drug effects on behavior are assessed using total distance traveled (in cm) as the most accurate measure of locomotor activity.
Male CD-1 albino mice weighing 20 to 40 g (Charles River Laboratories) or male Sprague-Dawley rats weighing 150 to 300 g (Harlan Laboratories) are used for these studies. […] Drug doses are expressed as the active moiety (taking into account the salt vs free base molecular weight of the drug). […]
Once the animal is placed in the activity chamber, the chambers are individually activated to begin collecting data. Activity levels are generally monitored with the overhead lights turned off, as the dark-stimulation tends to produce less variation in the data. […]
Data can be expressed as either actual counts, time (in sec), centimeters traveled, or percent inhibition of activity relative to vehicle-treated control animals tested concurrently. Significant changes in activity (i.e., cm traveled), relative to controls, are determined by t-test or analysis of variance and Newman-Keul's multiple-range test. […]

human D2 receptor, sequence (P14416 whole entry): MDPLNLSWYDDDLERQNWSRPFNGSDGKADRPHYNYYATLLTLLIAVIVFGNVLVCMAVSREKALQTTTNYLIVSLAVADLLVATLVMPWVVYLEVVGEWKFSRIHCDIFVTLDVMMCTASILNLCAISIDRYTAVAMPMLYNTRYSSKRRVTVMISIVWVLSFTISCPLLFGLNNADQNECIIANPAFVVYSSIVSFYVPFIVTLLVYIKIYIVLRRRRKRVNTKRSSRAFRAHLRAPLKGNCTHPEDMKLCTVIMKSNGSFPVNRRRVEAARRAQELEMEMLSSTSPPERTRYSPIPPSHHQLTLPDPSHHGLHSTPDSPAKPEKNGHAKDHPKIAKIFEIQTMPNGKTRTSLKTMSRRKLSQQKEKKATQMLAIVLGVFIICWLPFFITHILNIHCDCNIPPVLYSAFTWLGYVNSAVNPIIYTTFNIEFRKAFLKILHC

pIC50 (human D2 receptor): 5.53
SMILES: Cc1ccc(N2CCN(Cc3ccc4c(c3)NCCN4)CC2)cc1C [Example 2, 6-[4-(3,4-Dimethylphenyl)piperazin-1-ylmethyl]-1,2,3,4-tetrahydroquinoxaline]
Omnitech Digiscan Activity Monitor test (result in words) (locomotor activity; 1, 3, 10, 30 mg/kg IP): dose-dependent decrease | ED50 (locomotor activity; Mus musculus, ip): 16.5 mg/kg
